Test results published in patent US20110251135A1, “INHIBITORS OF PERITONEAL SEEDING OF CANCER CELLS” (University of Utah Research Foundation, priority 2008, published 2011).
Entries after “also recorded” stand apart in the source; their conditions may differ.

Tests used:
Format in all cases: cell-based, human
c-IAP-1 = test: Immunoblot of anti-apoptotic proteins in HT-29 cells; conditions: transiently suspended or adherent HT-29; 20 μM for 8 hours
Protocol: (§1) The data points represent the means of triplicate experiments and the error bars the standard errors of the means. […] The percent of apoptotic cells was then determined by the annexin V assay. […] The results shown are typical of two separate experiments. […] Immunoblots were performed for c-IAP-2, TRAF-1, TRAF-2, and FLIP. All lanes contain equal total protein.
(§2) The cells were washed twice in ice cold PBS and then lysed in 4° C. lysis buffer (50 mM HEPES, 150 mM NaCl, 1.5 mM MgCl2, 1 mM EGTA, 100 mM NaF, 10 mM Na2PO4, 1 mM Na3VO4, 10% glycerol, 1% TRITON™ X-100, and 1 μg/mL each of aprotinin, leupeptin, chymostatin, pepstatin) and clarified at 12,000 rpm at 4° C. for 15 minutes. The lysates were normalized for total protein concentration. Aliquots of the lysates were then mixed 1:1 in sample buffer (125 mM Tris-HCl (pH 6.8), 20% glycerol, 4% sodium dodecyl sulfate, 2% β-mercaptoethanol, 10 μg/mL bromophenol blue) and boiled for 3 minutes. The samples were loaded onto SDS-PAGE gels (7.5 or 10% acrylamide). […]
(§3) For immunodetection, the blocked blots were probed with primary antibody for 2 hours at 4° C. on a rocker. […] Alkaline phosphatase was detected by a colorimetric reaction using a BCIP (5-bromo-4-chloro-3-indolyl phosphate)/NBT (nitroblue tetrazolium) kit (Zymed).

TRAF-1 and TRAF-2 = test: as above; conditions: 20 μM for 8 hours
Protocol: as §1, §2, §3

NF-κB = NF-κB binding activity assay (TRANS-AM) in HT-29 cells
Protocol: The transiently suspended cells were lysed and allowed to bind to DNA oligonucleotides, containing the NF-κB consensus binding site, that were immobilized to 96-well plates. NF-κB protein bound to the oligonucleotides was detected by an antibody to the p65 subunit that only recognized p65 that is bound to DNA. The positive control was HeLa cells that were stimulated with TNFα. A control was performed using excess free NF-κB oligonucleotides (Competitor). […] NF-κB binding activity was determined by the TransAM assay as in FIG. 5A. […] The data shown represent typical results of three separate experiments. […] An immunoblot for COX-2 was performed.
Activation of NF-κB was also determined using the TRANS-AM™ assay (Active Motif, Carlsbad, Calif.) per the manufacturer's instructions. (Renard et al., “Development of a sensitive multi-well colorimetric assay for active NF-κB,” Nucleic Acids Res 29, E21, 2001). Briefly, cell monolayers on 60 mm dishes were washed with ice-cold PBS and removed by incubating in trypsin-PBS or scraping. The cells were centrifuged for 10 minutes at 1,000 rpm at 4° C. and resuspended for 10 minutes in 100 μL of 4° C. lysis buffer (20 mM HEPES (pH 7.5), 350 mM NaCl, 20% glycerol, 1% Igepal-CA630, 1 mM MgCl2, 0.5 mM EDTA, 0.1 mM EGTA, 1 μL of 1 M dithiothreitol and 10 μL of protease inhibitor cocktail (proprietary) per mL of lysis buffer). The lysates were centrifuged for 20 minutes at 14,000 g at 4° C. Lysates containing 5 μg of total protein were added to 20 μL of lysis buffer per well in 96-well dishes containing immobilized oligonucleotides corresponding to the NF-κB consensus DNA binding site (SEQ ID NO:2) (5′-[…]-3′). […] 100 μL of stop solution (0.5M H2SO4) was added to each well after which the absorbance was determined on a plate spectrophotometer at 450 nm. Specificity of binding was determined using 200-fold excess wildtype NF-κB oligonucleotides added at the time the cell lysates were added to the wells.
The same NF-κB binding assay was used to determine whether NF-κB inhibitors could diminish the activation of NF-κB by readhesion. […]

SMILES: CC(C)(C)c1ccc(S(=O)(=O)/C=C/C#N)cc1 [BAY 11-7085, (2E)-3-[4-(tertiarybutylphenyl)sulfonyl]-2-propenenitrile]
- c-IAP-1 protein expression (c-IAP-1): No decrease in c-IAP-1 protein expression
- TRAF-1 and TRAF-2 protein expression (TRAF-1 and TRAF-2): decrease in the protein expression of both TRAF-1 and TRAF-2 proteins
- constitutive NF-κB activation in adherent cells (NF-κB; adherent cells, increasing concentrations, up to 50 μM, 8 hours): relatively unaffected; also recorded: could not be inhibited
- NF-κB activation induced by readhesion of transiently suspended colon cancer cells (NF-κB; as little as 10 μM BAY 11-7085): almost totally inhibited
- NF-κB activation caused by readhesion (TRANS-AM) (NF-κB; transiently suspended HT-29, increasing concentrations, 8 hours): dose-related inhibition of this NF-κB activation
